The subject of series [1] is LPS-induced NO release by RAW 264.7 macrophages. Description: LPS-induced NO release, Griess reagent. Format: cell-based. To be noted: Mus musculus, RAW264.7; LPS-stimulated RAW 264.7, 24 h. The protocol:
RAW264.7 cells in the logarithmic growth phase were counted and diluted to a concentration of 6 × 10^4 cells/mL. After thorough mixing, the cell suspension was seeded into 48-well plates and incubated in a humidified atmosphere containing 5% CO2 at 37 °C. Following 24 h of incubation, the culture medium was carefully aspirated, and the cells were gently washed with phosphate-buffered saline. […] After 1 h of pre-incubation, 30 μL of lipopolysaccharide (1 μg/mL) was added to each well except for the blank control group, which remained unstimulated. Following an additional 24 h incubation under identical conditions, the culture supernatants were collected to assess NO production using the Griess reagent assay. Concentrations of pro-inflammatory cytokines and chemokines were determined using commercially available ELISA kits according to the protocols.

For series [2], the target named is T1, Cat G (Homo sapiens, UniProt P08311).
T1 construct: purchased MedChemExpress
Put plainly: Recombinant NSPs isolated enzyme assay, Cat G. To be noted: read-out: Cat G Enz (IC50: μM). The series is classed as biochemical. From the text: (§1) The protocol for evaluating the inhibitory potency of compounds against other cathepsins referred to the CTSC activity assay. Recombinant human CTSB, CTSL, CTSS and CTSK for testing were also purchased from R&D Systems Biotechnology Company. Recombinant human Cat G, NE, and PR3 For testing were purchased from MedChemExpress. A multi-functional microplate reader was used to measure the absorption of Z-Leu-Arg-AMC at excitation/emission wavelengths of 380/460 nm to assess the activity changes of CTSB and CTSL, while the absorption of MCA-Arg-Pro-Lys-Pro-Val-Glu-NVAL-Trp-Arg-Lys(DNP)-NH2 at 320/405 nm was measured to evaluate the activity changes of CTSS and CTSK. Different assay buffers were prepared for diluting samples and measuring the activities of specific NSPs: a buffer containing 50 mM Tris and 750 mM NaCl (pH 7.4) was used for NE and PR3; a buffer containing 50 mM Tris, 750 mM NaCl, 5 mM EDTA (pH 7.4) was used for Cat G; and a buffer containing 25 mM MES, 50 mM NaCl, 5 mM DTT (pH 6.0) was used for CTSC. Synthetic substrates were employed to assess the activities of NSPs and CTSC: H-Gly-Arg-AMC for CTSC, N-MeSuc-Ala-Ala-Pro-Val-pNA for NE, aminobenzoyl-Val-Ala-Asp-Cys-Ala-Asp-Gln-ethylenediamine 2,4-dinitrophenyl for PR3, and N-Suc-Ala-Ala-Pro-Phe-pNA for Cat G. Each group of tests was independently repeated at least 3 times, and IC50 values were calculated using SPSS 10.0.

Series [3] concerns PR3. Put plainly: AIA model, serum PR3 activity. Format: in vivo, Sprague-Dawley rats. To be noted: rat AIA, high dose 60 mg/kg gavage, 15 days. The protocol:
Thirty 4-week-old male Sprague-Dawley rats (weighing 120–130 g) were randomly divided into 6 groups (5 rats per group) after 1 week of adaptive feeding, namely the normal group, model group, low-dose experimental group (15 mg/kg), medium-dose experimental group (30 mg/kg), high-dose experimental group (60 mg/kg), and positive control group (30 mg/kg). Starting from Day 0 of the experiment, rats in the administration groups and model group were injected intradermally with 0.1 mL of CFA into the left hind paw to induce AIA, while rats in the normal group were injected intradermally with an equal volume (0.1 mL) of normal saline as a control. After 13 consecutive days of feeding, rats treated with CFA successfully developed typical AIA symptoms. […] During the experiment, the body weight, mental state, activity ability, hair color changes, and paw appearance changes of the rats were observed and recorded daily. In addition, on Day 0 of the experiment (baseline period), the basic paw volume of all rats was accurately measured using a plethysmometer, which served as a reference standard for subsequent evaluation of inflammation severity. From Day 13 to Day 28 of the experiment, the paw volume of the rats was measured repeatedly every 3 days. The degree of paw swelling was quantified by calculating the change in paw volume relative to the baseline. […] The cytokine levels in serum were measured. […]

Series [4] addresses T2, CTSC (Mus musculus, UniProt P97821).
T2 construct: from tissue; host or cells: mouse blood and bone marrow lysates
Put plainly: CTSC activity in blood and bone marrow of mice. To be noted: 30 mg/kg daily gavage, 7 days. Format: in vivo, C57BL/6 mice. On the procedure:
A total of 25 C57BL/6 mice (6–8 weeks old, weighing approximately 20 g, with equal numbers of males and females) were randomly divided into five groups. Mice in the compound-treated groups were orally administered the compound once daily at doses of 0.3, 3, and 30 mg/kg for 7 consecutive days. […] Mice in the normal group were given an equal volume of normal saline at the same time points. The body weight, death rate, and behavior were observed and recorded daily for one week. After 7 days, bone marrow and blood samples were collected from the mice and lysed using 8% Triton X-100 buffer. The lysates were stored at −20 °C until testing. The activity assays for CTSC and NSPs were performed as described above. The mice were anesthetized and the tissues were taken for H&E staining.

The nature of series [5]: Cytotoxicity assay, RAW264.7 cell line. To be noted: mouse, RAW264.7 cells. Format: cell-based. The protocol: RAW264.7 cells and U937 cells in the logarithmic growth phase were counted and diluted, and the concentrations of the single-cell suspensions of the two types of cells were adjusted to 5 × 10^4 cells/mL and 3 × 10^4 cells/mL, respectively. After thorough mixing, the cells were seeded into a 96-well plate, with 100 μL of cell suspension added to each well. Prepare the working solution of test compounds using the corresponding medium as the solvent, with the concentration of working solution being 2 times the final test concentration (2.5 μM, 5 μM, 10 μM, 20 μM, and 40 μM). Twenty-four hours after cell seeding, the compound working solutions were added to the compound test wells, and the same volume of medium was added to the negative control wells, followed by continuous incubation for another 24 h. Only the wells with the same volume but without cells served as the blank control group. The CellTiter-Lumi™ luminescent cell viability assay kit (Beyotime Biotechnology, Shanghai, China, C0065XL) was used to detect cell viability according to the standard operating procedures. Each group of tests was independently repeated at least 3 times, and IC50 values were calculated using SPSS 10.0.

For series [6], the target named is T3, PR3 (Homo sapiens, UniProt P24158).
T3 construct: purchased MedChemExpress
Description: Recombinant NSPs isolated enzyme assay, PR3. To be noted: read-out: PR3 Enz (IC50: μM). The series is classed as biochemical.
From the text: as §1

A value given as a limit tells only on which side of the number the result lay.

T2 sequence (P97821 25-462): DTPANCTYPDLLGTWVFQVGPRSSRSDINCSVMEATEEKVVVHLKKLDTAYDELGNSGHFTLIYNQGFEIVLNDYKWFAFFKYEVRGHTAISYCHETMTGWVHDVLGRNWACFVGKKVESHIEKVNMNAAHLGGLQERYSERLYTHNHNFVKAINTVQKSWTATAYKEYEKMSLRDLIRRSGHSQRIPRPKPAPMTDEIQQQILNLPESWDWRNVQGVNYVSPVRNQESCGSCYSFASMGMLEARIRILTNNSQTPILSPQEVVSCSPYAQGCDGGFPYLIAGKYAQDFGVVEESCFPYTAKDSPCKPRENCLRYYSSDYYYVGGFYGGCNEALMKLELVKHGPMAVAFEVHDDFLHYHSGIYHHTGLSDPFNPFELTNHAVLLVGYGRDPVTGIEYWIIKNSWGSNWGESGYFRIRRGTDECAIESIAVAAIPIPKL
T1 sequence (P08311 21-255): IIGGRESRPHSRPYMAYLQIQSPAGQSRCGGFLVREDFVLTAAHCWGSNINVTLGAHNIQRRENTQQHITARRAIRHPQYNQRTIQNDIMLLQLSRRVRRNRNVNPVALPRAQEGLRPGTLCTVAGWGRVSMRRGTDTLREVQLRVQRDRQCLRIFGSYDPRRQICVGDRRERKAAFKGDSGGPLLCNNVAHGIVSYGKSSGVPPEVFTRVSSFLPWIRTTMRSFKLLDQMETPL
T3 sequence (P24158 28-256): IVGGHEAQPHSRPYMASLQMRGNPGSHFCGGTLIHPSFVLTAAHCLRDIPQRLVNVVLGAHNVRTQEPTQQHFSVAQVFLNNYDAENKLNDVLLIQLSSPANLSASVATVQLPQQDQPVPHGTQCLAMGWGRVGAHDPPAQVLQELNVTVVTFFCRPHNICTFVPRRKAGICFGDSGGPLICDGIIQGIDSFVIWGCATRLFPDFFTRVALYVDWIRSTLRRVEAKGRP

As for `C[C@@H]1C[C@H]2OC(=O)[C@@]3(C)CCC[C@@](C)([C@@H]23)[C@@]1(O)CCc1ccoc1` [Marrubiin, marrubiin], the IC50 in series [1] is 0.83 µM; in series [2] it was above 10 µM; in series [6], above 10 µM. Besides, the “serum PR3 activity, % of control group” value in series [3] is listed as around 50%. Also, the “remaining activity rate of CTSC” value in series [4] (blood) is listed as around 25.5%; in series [4] (bone marrow) it was “approximately 15.5%”. The compound further came in with a concentration for half-maximal inhibition (IC50) at 24 h in series [5] above 10 µM.

Values taken from article PMC12610274, “Identification of Marrubiin as a Cathepsin C Inhibitor for Treating Rheumatoid Arthritis” (Molecules, 2025).
